The subject of one assay is IFVA/Weiss/43. Put plainly: cytopathic effect (CPE) antiviral test in MDCK cells, IFVA/Weiss/43. The format is cell-based, influenza virus. As to conditions: unidentified influenza virus, MDCK, 120 h, read-out: EC50(IFVA/Weiss/43), MDCK cells, CPE method, CCK-8 cell viability, 5 days. Background: Protection from cytopathic effect is a common read-out in antiviral testing.

In the next assay the test system is IFVA/Mal/302/54. Put plainly: cytopathic effect (CPE) antiviral test in MDCK cells, IFVA/Mal/302/54. The format is cell-based, influenza virus. As to conditions: unidentified influenza virus, MDCK, 120 h, read-out: EC50(IFVA/Mal/302/54), MDCK cells, CPE method, CCK-8 cell viability, 5 days.

Some results are limits rather than exact numbers.

For the molecule `CC(=O)Nc1ccc2oc(-c3ccnc(C(=O)N4CC5(CCN(C(c6ccccc6)c6nnn(C)n6)CC5)C4)c3)nc2c1` (stereo not shown) [Compound 8, N-(2-(2-(7-((2-methyl-2H-tetrazol-5-yl)(phenyl)methyl)-2,7-diazaspiro[3.5]nonane-2-carbonyl)pyridin-4-yl)benzo[d]oxazol-5-yl)acetamide], the EC50 in the assay on IFVA/Weiss/43 and with IFVA/Mal/302/54 was > 10000 nM in each case.

For `CC(=O)Nc1ccc2oc(-c3ccnc(C(=O)N4CC5CN(C(c6ccccc6)c6nnn(C)n6)CC5C4)c3)nc2c1` (stereo not shown) [Compound 3, N-(2-(2-(5-((2-methyl-2H-tetrazol-5-yl)(phenyl)methyl)octahydropyrrolo[3,4-c]pyrrole-2-carbonyl)pyridin-4-yl)benzo[d]oxazol-5-yl)acetamide], the EC50 worked out at 780 nM with IFVA/Weiss/43 and 1170 nM in the assay with IFVA/Mal/302/54.

Regarding `O=C(Nc1ccc2oc(-c3ccnc(C(=O)N4CCN(C(c5ccccc5)c5nnn(C(F)F)n5)CC4)c3)nc2c1)[C@@H]1CC1(F)F` (mixture of isomers) [Compound 29, (1S)—N-(2-(2-(4-((2-(difluoromethyl)-2H-tetrazol-5-yl)(phenyl)methyl)piperazine-1-carbonyl)pyridin-4-yl)benzo[d]oxazol-5-yl)-2,2-difluorocyclopropane-1-carboxamide], the results for the EC50 with IFVA/Weiss/43 and with IFVA/Mal/302/54 were 4 nM and 22 nM, respectively.

Consider `CC(=O)Nc1ccc2oc(-c3ccnc(C(=O)N4CCN(C(c5ccccc5)c5nnn(C)n5)[C@H](C)C4)c3)nc2c1` (single isomer, unassigned) [Compound 16b], for which the EC50 in the assay with IFVA/Weiss/43 and in the assay on IFVA/Mal/302/54 was > 10000 nM in each case.

With `CC(=O)Nc1ccc2oc(-c3ccnc(C(=O)N4C5CC4CN(C(c4ccccc4)c4nnn(C)n4)C5)c3)nc2c1` (stereo not shown) [Compound 20, N-(2-(2-(3-((2-methyl-2H-tetrazol-5-yl)(phenyl)methyl)-3,6-diazabicyclo[3.1.1]heptane-6-carbonyl)pyridin-4-yl)benzo[d]oxazol-5-yl)acetamide], the EC50 in the assay with IFVA/Weiss/43 stood at 545 nM; in the assay with IFVA/Mal/302/54 it was 919 nM.

For `CC(=O)Nc1ccc2oc(-c3ccnc(C(=O)N4CC5CC(C4)N5C(c4ccccc4)c4nnn(C)n4)c3)nc2c1` (stereo not shown) [Compound 23, N-(2-(2-(6-((2-methyl-2H-tetrazol-5-yl)(phenyl)methyl)-3,6-diazabicyclo[3.1.1]heptane-3-carbonyl)pyridin-4-yl)benzo[d]oxazol-5-yl)acetamide], the EC50 with IFVA/Weiss/43 and in the assay on IFVA/Mal/302/54 was > 10000 nM each time.

Take `CC(=O)Nc1ccc2oc(-c3ccnc(C(=O)N4CCN(C(c5nnn(C)n5)c5ccccc5F)CC4)c3)nc2c1` (stereo not shown) [Compound 9, N-(2-(2-(4-((2-fluorophenyl)(2-methyl-2H-tetrazol-5-yl)methyl)piperazine-1-carbonyl)pyridin-4-yl)benzo[d]oxazol-5-yl)acetamide]: the EC50 stood at 126 nM in the assay on IFVA/Weiss/43 and 214 nM with IFVA/Mal/302/54.

For the molecule `CC(=O)Nc1ccc2oc(-c3ccnc(C(=O)N4CCN(C(c5ccccc5)c5nnn(C(F)F)n5)CC4)c3F)nc2c1` (racemic) [Compound 79, (R/S)—N-(2-(2-(4-((2-(difluoromethyl)-2H-tetrazol-5-yl)(phenyl)methyl)piperazine-1-carbonyl)-3-fluoropyridin-4-yl)benzo[d]oxazol-5-yl)acetamide], the EC50 with IFVA/Weiss/43 turned out to be 7 nM; in the assay on IFVA/Mal/302/54, 13 nM.

Consider `Cn1nnc(C(c2ccccc2)N2CCN(C(=O)c3cc(-c4nc5cc(OC(F)F)ccc5o4)ccn3)CC2)n1` (stereo not shown) [Compound 44, (4-(5-(difluoromethoxy)benzo[d]oxazol-2-yl)pyridin-2-yl)(4-((2-methyl-2H-tetrazol-5-yl)(phenyl)methyl)piperazin-1-yl)methanone], for which the EC50 in the assay on IFVA/Weiss/43 was determined as 110 nM; with IFVA/Mal/302/54 it was 65 nM.

In the case of `CC(=O)Nc1ccc2oc(-c3ccnc(C(=O)N4CCN(C(c5cccc(F)c5)c5nnn(C)n5)CC4)c3)nc2c1` (stereo not shown) [Compound 11, N-(2-(2-(4-((3-fluorophenyl)(2-methyl-2H-tetrazol-5-yl)methyl)piperazine-1-carbonyl)pyridin-4-yl)benzo[d]oxazol-5-yl)acetamide], the values for the EC50 with IFVA/Weiss/43 and in the assay on IFVA/Mal/302/54 were 173 nM and 260 nM, respectively.

`O=C(c1cc(-c2nc3cc(N4CCCC4=O)ccc3o2)ccn1)N1CCN(C(c2ccccc2)c2nnn(C(F)F)n2)CC1` (stereo not shown) [Compound 37, 1-(2-(2-(4-((2-(difluoromethyl)-2H-tetrazol-5-yl)(phenyl)methyl)piperazine-1-carbonyl)pyridin-4-yl)benzo[d]oxazol-5-yl)pyrrolidin-2-one]: the EC50 turned out to be 17 nM in the assay with IFVA/Weiss/43 and 22 nM with IFVA/Mal/302/54.

As to `Cn1nnc(C(c2ccccc2)N2C[C@H]3CC[C@@H](C2)N3C(=O)c2cc(-c3nc4cc(N5CCCC5=O)ccc4o3)ccn2)n1` (stereo partly drawn) [Compound 19, 1-(2-(2-((1R,5S)-3-((2-methyl-2H-tetrazol-5-yl)(phenyl)methyl)-3,8-diazabicyclo[3.2.1]octane-8-carbonyl)pyridin-4-yl)benzo[d]oxazol-5-yl)pyrrolidin-2-one], the EC50 in the assay with IFVA/Weiss/43 was 23 nM; in the assay on IFVA/Mal/302/54, 19 nM.

In the case of `Cn1nnc(C(c2ccccc2)N2CCN(C(=O)c3cc(-c4nc5cc(NC(=O)[C@H]6C[C@H]6F)ccc5o4)ccn3)CC2)n1` (stereo partly drawn) [Compound 28, (1R,2R)-2-fluoro-N-(2-(2-(4-((2-methyl-2H-tetrazol-5-yl)(phenyl)methyl)piperazine-1-carbonyl)pyridin-4-yl)benzo[d]oxazol-5-yl)cyclopropane-1-carboxamide], the EC50 in the assay with IFVA/Weiss/43 worked out at 17 nM; in the assay with IFVA/Mal/302/54, 27 nM.

With `CC(=O)Nc1ccc2oc(-c3ccnc(C(=O)N4CC5CCC(C4)N5C(c4ccccc4)c4nnn(C)n4)c3)nc2c1` (stereo not shown) [Compound 1, N-(2-(2-(8-((2-methyl-2H-tetrazol-5-yl)(phenyl)methyl)-3,8-diazabicyclo[3.2.1]octane-3-carbonyl)pyridin-4-yl)benzo[d]oxazol-5-yl)acetamide], the values for the EC50 with IFVA/Weiss/43 and in the assay with IFVA/Mal/302/54 were 480 nM and 573 nM, respectively.

`CC(=O)Nc1ccc2nn(-c3ccnc(C(=O)N4CCN(C(c5ccccc5)c5nnn(C(F)F)n5)CC4)c3)cc2c1` (stereo not shown) [Compound 60, N-(2-(2-(4-((2-(difluoromethyl)-2H-tetrazol-5-yl)(phenyl)methyl)piperazine-1-carbonyl)pyridin-4-yl)-2H-indazol-5-yl)acetamide]: the EC50 in the assay on IFVA/Weiss/43 was found to be 54 nM; with IFVA/Mal/302/54, 84 nM.

On to `CC(=O)Nc1ccc2oc(-c3ccnc(C(=O)N4CCN(C(c5ccccc5)c5nnn(C)n5)[C@H](C)C4)c3)nc2c1` (mixture of isomers) [Compound 16a, N-(2-(2-((3R)-3-methyl-4-((2-methyl-2H-tetrazol-5-yl)(phenyl)methyl)piperazine-1-carbonyl)pyridin-4-yl)benzo[d]oxazol-5-yl)acetamide], for which the EC50 is 7160 nM with IFVA/Weiss/43 and > 10000 nM in the assay with IFVA/Mal/302/54.

Regarding `CC(=O)Nc1ccc2oc(-c3ccnc(C(=O)N4C[C@@H]5C[C@H]4CN5C(c4ccccc4)c4nnn(C)n4)c3)nc2c1` (stereo partly drawn) [Compound 14, N-(2-(2-((1S,4S)-5-((2-methyl-2H-tetrazol-5-yl)(phenyl)methyl)-2,5-diazabicyclo[2.2.1]heptane-2-carbonyl)pyridin-4-yl)benzo[d]oxazol-5-yl)acetamide], the EC50 in the assay with IFVA/Weiss/43 turned out to be 383 nM; with IFVA/Mal/302/54, 1100 nM.

The values are drawn from patent publication US20230079045A1 (priority 2019, published 2023).
